Reference: patent publication US20030133918A1, “Methods for ex vivo propagation of somatic stem cells” (priority 2001, published 2003)

Experiments:
Xs-D lines = assay: Albumin induction in adherent culture under conditions of quiescence; type: cell-based, rat; conditions: added to standard quiescence-induction protocol (confluency, 1% serum)
From the text: In vivo, cell differentiation in somatic tissues has two important cell kinetics features. First, it occurs after a fixed number of cell divisions from the stem cell stage; and second, cells undergo a cell kinetics arrest before terminal differentiation occurs (Potten and Morris, 1988). Ideally, we wanted to mimic this process in culture with cells dividing with asymmetric stem cell kinetics. However, there was concern whether in vitro asymmetric divisions would be in appropriate balance with non-dividing cells. So, we decided to augment the growth arrest by growing cells to confluency in either Xs-free or Xs-containing medium and then inducing a total quiescent state by reducing the serum concentration to 1%. Many in vitro cell models have been described that undergo differentiation upon serum reduction.
The most dramatic differentiation result obtained in the adherent culture studies was the induction of albumin expression in Xs-D lines under conditions of quiescence (See example in FIG. 4). […] Three other treatments were added to the standard quiescence-induction protocol to evaluate their effect on albumin induction. These were DMSO to mimic glucocorticoid effects, growth on collagen as a form of extracellular matrix, and glucose-removal as noted above for its differentiation effects on gastrointestinal cell lines. […]

[1] = tested on: freshly harvested murine bone marrow cells; assay: Bone marrow colony formation in soft agar (fresh bone marrow); type: cell-based; conditions: fresh bone marrow cells; type I, II, III colonies
Experimental: The following numbers of freshly harvested murine bone marrow cells were plated in soft agar in replicates of 6 in 6-well plates: 1×10^5, 5×10^5, or 1×10^6. After 1-3 weeks, type I, II, and III colonies (see FIG. 2 for examples) were enumerated by phase microscopy.
Because of the difficulties anticipated in cloning Xs-dependent cells from heterogenous long-term bone marrow cultures, we decided to adopt a soft agar culture strategy. It is well known that hematopoietic progenitor cells will form colonies when grown in semi-solid medium (Dexter et al., 1984). […] In many bone marrow cell studies, conditions are selected to induce bone marrow cell differentiation. Methyl-cellulose or soft agar supplemented with lineage-promoting growth factors are widely used experimental systems (Dexter et al., 1984). For ideal SACK, we wished to minimize stimuli for differentiation. Therefore, we used agar developed in routine horse serum-supplemented long-term culture medium, without any additional growth factor source, as the gel medium for our studies. We followed procedures developed for detecting anchorage-independent growth of transformed tumor cells.
Given their associated HSC activity, LT-CFCs are predicted to divide with asymmetric cell kinetics. We evaluated whether Xs would increase the frequency of LT-CFC type I colonies in soft agar. Freshly prepared bone marrow cells were plated in soft agar developed in either control medium or medium containing 1 mM or 3 mM Xs.

[2] = tested on: p53-inducible model cells; conditions: published studies (Sherley, 1991); cited from earlier work

Structure (SMILES) | Effect on degree/induction of albumin expression (Xs-D lines) | Effect on frequency of colony types in soft agar [1] | Effectiveness as SACK agent compared with Xs [2]
C[S+](C)[O-] [DMSO] | no noticeable effect | – | –
O=c1[nH]cnc2nc[nH]c12 [Hx, hypoxanthine] | – | increased the frequency of type II and III colonies at the expense of type I colonies | not as effective a SACK agent as Xs
